The values below come from patent US10647665B2, “Biaryl urea derivative or salt thereof and preparation process and use for the same” (Fudan University, priority 2016, dated 2020).

Chain of RORγ receptor (B-RORγ LBD) (P51449 269-508): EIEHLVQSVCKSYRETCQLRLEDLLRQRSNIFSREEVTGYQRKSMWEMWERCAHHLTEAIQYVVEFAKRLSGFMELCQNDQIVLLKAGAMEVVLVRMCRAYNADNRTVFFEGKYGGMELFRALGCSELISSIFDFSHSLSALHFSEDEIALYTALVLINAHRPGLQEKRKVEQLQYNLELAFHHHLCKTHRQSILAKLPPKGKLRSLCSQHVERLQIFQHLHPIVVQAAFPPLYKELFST

The target in this test is RORγ receptor (B-RORγ LBD) (Homo sapiens (Human), UniProt P51449). As to the kind of experiment: Inhibitory activity on RORγ receptor in vitro by fluorescence resonance energy transfer (FRET). The following applies: average of at least two independent tests. The test is classed as biochemical. The protocol:
The inhibitory activity of compounds on RORγ receptor was determined by fluorescence resonance energy transfer (FRET) experiments. The inhibitory activity was expressed by half-inhibitory concentration (IC50).
1. Preparation of RORγ Buffer Solution
10 mL of DTT and 100 mL buffer solution were gently mixed together and ready to use.
2. Preparation of Compound Solution
3. Preparation of Protein Mixture a. 40 nM B-RORγ LBD solution and 20 nM SA-APC solution were gently mixed together. The reaction mixture was incubated for 15 minutes at room temperature. Then 400 nM Biotin was added to the described above mixture. After gently mixed together, the resulting mixture was incubated for 10 minutes at room temperature. […]
b. 40 nM Bioin-SRC1 solution and 10 nM SA-eu solution were gently mixed together, and the reaction mixture was incubated for 15 minutes at room temperature. Then 200 nM Biotin was added to the described above mixture. After gently mixed together, the resulting mixture was incubated for 10 minutes at room temperature. […]
d. A mixture of 0.1 μM alternative agonist
N-(2-chloro-6-fluorophenyl)-N-((20-methoxy-[1,10-biphenylyl]-4-substituted)methyl)benzenesulfonamide, 25 μL B-RORγ LBD/SA-APC and Bioin-SRC1/SA-eu mixture solution with test compound were added to one of the well of a 384-well plate, then they were centrifuged for 1 minute at 1000 rpm, and incubated at room temperature for 1 hour. The values were read on the Envision microplate detector and IC50 was calculated.
Regarding `CCS(=N)(=O)c1ccc(CNC(=O)Nc2cc(Cl)c(-c3ccccc3OC(F)(F)F)c(Cl)c2)cc1` (stereo not shown) [Example 1-9, 1-(2,6-dichloro-2′-(trifluoromethoxv)-[1,1′-biphenyl]-4-yl)-3-(4-(ethylsulfonimidoyl)benzyl)urea], the IC50 (commonly the concentration that inhibits the measured activity by half) was < 500 nM.
With `CCS(=O)(=O)c1ccc(CNC(=O)Nc2cc(Cl)c(-c3ccccc3OC(F)(F)F)c(Cl)c2)nc1` [Example 1-11, 1-(2,6-dichloro-2′-(trifluoromethoxy)-[1,1′-biphenyl]-4-yl)-3-((5-(ethylsulfonyl)pyridine-2-yl)methyl)urea], the IC50 was < 500 nM.
Turning to `CS(=O)(=O)c1ccc(CNC(=O)Nc2cc(Cl)c(-c3ccccc3OC(F)(F)F)c(Cl)c2)nc1` [Example 1-12, 1-(2,6-dichloro-2′-(trifluoromethoxy)-[1,1′-biphenyl]-4-yl)-3-((5-(methylsulfonyl)pyridine-2-yl)methyl)urea], the IC50 was < 500 nM.
For the molecule `CNS(=O)(=O)c1ccc(CNC(=O)Nc2cc(Cl)c(-c3ccccc3OC(F)(F)F)c(Cl)c2)nc1` [Example 1-13, 6-((3-(2,6-dichloro-2′-(trifluoromethoxy)-[1,1′-biphenyl]-4-yl)ureido)methyl)-N-methylpyridine-3-sulfonamide], the IC50 is < 500 nM.
For `CC(C(=O)O)c1ccc(CNC(=O)Nc2cc(Cl)c(-c3ccccc3OC(F)(F)F)c(Cl)c2)cc1` (stereo not shown) [Example 1-24, 2-(4-((3-(2,6-dichloro-2′-(trifluoromethoxy)-[1,1′-biphenyl]-4-yl)ureido)methyl)phenyl)propanoic acid], the IC50 is 500 to 5000 nM.
The molecule `CN(C(=O)NCc1ccc(CC(=O)O)cc1)c1cc(Cl)c(-c2ccccc2OC(F)(F)F)c(Cl)c1` [Example 1-27, 2-(4-((3-(2,6-dichloro-2′-(trifluoromethoxy)-[1,1′-biphenyl]-4-yl)-3-methylureido)methyl)phenyl)acetic acid] displayed a half-maximal inhibitory concentration (IC50) of 500 to 5000 nM.
In turn, `CN(Cc1ccc(CC(=O)O)cc1)C(=O)Nc1cc(Cl)c(-c2ccccc2OC(F)(F)F)c(Cl)c1` [Example 1-28, 2-(4-((3-(2,6-dichloro-2′-(trifluoromethoxy)-[1,1′-biphenyl]-4-yl)-1-methylureido)methyl)phenyl)acetic acid] gave an IC50 of 500 to 5000 nM.
Under `CC(C(=O)O)c1ccc(CNC(=O)Nc2cc(Cl)c(-c3ccccc3OC(F)(F)F)c(Cl)c2)nc1` (stereo not shown) [Example 1-30, 2-(6-((3-(2,6-dichloro-2′-(trifluoromethoxy)-[1,1′-biphenyl]-4-yl)ureido)methyl)pyridin-3-yl)propanoic acid] stands 500 to 5000 nM; under `Cc1cc(CNC(=O)Nc2cc(Cl)c(-c3ccccc3OC(F)(F)F)c(Cl)c2)ccc1CC(=O)O` [Example 1-31, 3-(4-((3-(2,6-dichloro-2′-(trifluoromethoxy)-[1,1′-biphenyl]-4-yl)ureido)methyl)-2-methylphenyl)acetic acid], 500 to 5000 nM; under `Cc1cc(CC(=O)O)ccc1CNC(=O)Nc1cc(Cl)c(-c2ccccc2OC(F)(F)F)c(Cl)c1` [Example 1-34, 3-(4-((3-(2,6-dichloro-2′-(trifluoromethoxy)-[1,1′-biphenyl]-4-yl)ureido)methyl)-3-methylphenyl)acetic acid], < 500 nM.
Consider `O=C(O)CCc1ccc(CNC(=O)Nc2cc(Cl)c(-c3ccccc3OC(F)(F)F)c(Cl)c2)cc1` [Example 1-36, 3-(4-((3-(2,6-dichloro-2′-(trifluoromethoxy)-[1,1′-biphenyl]-4-yl)ureido)methyl)phenyl)propanoic acid], for which the IC50 is 500 to 5000 nM.
For the molecule `O=C(NCc1ccc(C(O)C(=O)O)cc1)Nc1cc(Cl)c(-c2ccccc2OC(F)(F)F)c(Cl)c1` (stereo not shown) [Example 1-37, 2-(4-((3-(2,6-dichloro-2′-(trifluoromethoxy)-[1,1′-biphenyl]-4-yl)ureido)methyl)phenyl)-2-hydroxyacetic acid], the IC50 was < 500 nM.
Consider `O=C(NCc1ccc(C(F)C(=O)O)cc1)Nc1cc(Cl)c(-c2ccccc2OC(F)(F)F)c(Cl)c1` (stereo not shown) [Example 1-38, 2-(4-((3-(2,6-dichloro-2′-(trifluoromethoxy)-[1,1′-biphenyl]-4-yl)ureido)methyl)phenyl)-2-fluoroacetic acid], for which the IC50 was < 500 nM.
